Molecules are shown by their SMILES.

The target of test [1] is T1, (Homo sapiens, UniProt P08069).
T1 construct: human IGF1R kinase domain residues M954-C1367; made in house; host or cells: baculovirus expression (insect cells)
The test can be described thus: IGF1R kinase assay (LCCA), IGF 0P. To be noted: IGF1R kinase LCCA assay. Format: biochemical. The method, then:
(§1) Kinase activity and compound inhibition are investigated using one or more of the three assay formats described below. The ATP concentrations for each assay are selected to be close to the Michaelis-Menten constant (KM) for each individual kinase. Dose-response experiments are performed at 10 different inhibitor concentrations in a 384-well plate format. […] Y=Min+(Max−Min)/(1+(X/IC50)^H) Equation (2)
(§2) IGF1R kinase biochemical activity was assessed using a Luciferase-Coupled Chemiluminescent Kinase assay (LCCA) format. Kinase activity was measured as the percent ATP remaining following the kinase reaction. Remaining ATP was detected by luciferase-luciferin-coupled chemiluminescence. Specifically, the reaction was initiated by mixing test compounds, 3 μM ATP, 4 μM poly EY peptide and 4 nM IGF1R (baculovirus expressed human IGF1R kinase domain residues M954-C1367) in a 20 uL assay buffer (20 mM Tris-HCL pH7.5, 10 mM MgCl2, 0.02% Triton X-100, 1 mM DTT, 2 mM MnCl2). The mixture is incubated at ambient temperature for 2 hours after which 20 uL luciferase-luciferin mix is added and the chemiluminescent signal read using a Wallac Victor^2 reader.

The target of test [2] is T2, IGF 3P (Homo sapiens, UniProt P08069).
T2 construct: human IGF1R kinase domain residues M954-C1367; made in house; host or cells: baculovirus expression (insect cells)
The test can be described thus: IGF1R kinase assay (LCCA), IGF 3P. Format: biochemical. To be noted: IGF1R kinase LCCA assay. The method, then: as §1, §2

T1 sequence (P08069 954-1367): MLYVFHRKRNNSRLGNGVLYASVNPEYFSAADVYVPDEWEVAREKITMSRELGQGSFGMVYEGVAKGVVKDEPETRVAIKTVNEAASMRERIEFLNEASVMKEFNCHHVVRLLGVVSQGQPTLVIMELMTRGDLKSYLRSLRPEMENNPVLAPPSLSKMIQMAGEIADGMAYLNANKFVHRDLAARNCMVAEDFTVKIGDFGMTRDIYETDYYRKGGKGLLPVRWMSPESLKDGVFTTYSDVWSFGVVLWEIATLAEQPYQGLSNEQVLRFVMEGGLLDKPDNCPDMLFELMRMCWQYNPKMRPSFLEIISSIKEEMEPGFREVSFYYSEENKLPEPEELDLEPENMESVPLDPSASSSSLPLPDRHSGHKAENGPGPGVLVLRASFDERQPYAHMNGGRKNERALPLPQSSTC
T2 sequence (P08069 954-1367): as above

For the compound `Brc1cnc(Nc2ccc(N3CCOCC3)nc2)nc1Nc1cc(C2CC2)n[nH]1` [Example 81], the IC50 in test [1] fell in the range of 500 to 5000 nM; in test [2], 50 to 500 nM.
The like results for `Cc1cc(Nc2cc(C3CC3)[nH]n2)nc(NCc2cc(C3CCCCC3)no2)n1` [Example 82] were, in that order, 50 to 500 nM and 50 to 500 nM.
For `Brc1ccccc1Nc1ncc(Br)c(Nc2cc(C3CC3)n[nH]2)n1` [Example 83], in that order: 50 to 500 nM and 50 to 500 nM.
The like results for `FC(F)(F)Oc1ccccc1Nc1ncc(Br)c(Nc2cc(C3CC3)n[nH]2)n1` [Example 84] were, in that order, 50 to 500 nM and 50 to 500 nM.
Regarding `CN1CCN(C(=O)CCc2ccc(Nc3ncc(Br)c(Nc4cc(C5CC5)[nH]n4)n3)cc2)CC1` [Example 85], the IC50 in test [1] was in the range of 500 to 5000 nM; in test [2], 50 to 500 nM.
The like results for `Cc1cc(Nc2nc(Nc3ccccc3)ncc2Br)[nH]n1` [Example 90] were, in that order, 500 to 5000 nM and 50 to 500 nM.
For `NS(=O)(=O)c1ccc(Nc2ncc(Br)c(Nc3cc(C4CC4)n[nH]3)n2)cc1` [Example 91], in that order: 50 to 500 nM and 50 to 500 nM.
On to `CC(C)(C)OC(=O)NCc1ccc(Nc2ncc(Br)c(Nc3cc(C4CC4)[nH]n3)n2)cc1` [Example 92], for which the IC50 in test [1] and in test [2] was 50 to 500 nM throughout.
In the case of `Cc1c(Br)cccc1Nc1ncc(Br)c(Nc2cc(C3CC3)[nH]n2)n1` [Example 95], the IC50 in test [1] and in test [2] was 50 to 500 nM each time.
On to `Brc1cnc(Nc2ccccc2I)nc1Nc1cc(C2CC2)n[nH]1` [Example 96], for which the IC50 in test [1] and in test [2] was 50 to 500 nM in each case.
Take `CN1CCN(C(=O)CCc2cccc(Nc3ncc(Br)c(Nc4cc(C5CC5)n[nH]4)n3)c2)CC1` [Example 100]: the IC50 fell in the range of 500 to 5000 nM in test [1] and 50 to 500 nM in test [2].
The like results for `Clc1ccccc1Nc1ncc(Cl)c(Nc2cc(C3CC3)[nH]n2)n1` [Example 101] were, in that order, 50 to 500 nM and 50 to 500 nM.
For `Brc1cnc(Nc2ccc3c(c2)OCCO3)nc1Nc1cc(C2CC2)n[nH]1` [Example 104], in that order: 50 to 500 nM and 50 to 500 nM.
The like results for `CCN(CC)CCCNC(=O)CCc1cccc(Nc2ncc(Br)c(Nc3cc(C4CC4)n[nH]3)n2)c1` [Example 107] were, in that order, 500 to 5000 nM and 50 to 500 nM.
With `CN(C)c1cc(Nc2cc(C3CC3)[nH]n2)nc(NCc2cc(-c3ccccc3)no2)n1` [Example 110], the IC50 in test [1] and in test [2] was 50 to 500 nM in each case.
For the compound `Cc1cc(Nc2cc(C3CC3)n[nH]2)nc(Nc2ccc(CCC(=O)N(C)C)cc2)n1` [Example 111], the IC50 is 500 to 5000 nM in test [1] and 50 to 500 nM in test [2].
The like results for `Cc1cc(Nc2ccnc(Nc3ccc(N4CCOCC4)cc3)n2)no1` [Example 113] were, in that order, 500 to 5000 nM and 50 to 500 nM.
The like results for `CC(C)(C)c1cc(Nc2nc(Nc3ccccc3)ncc2Br)n[nH]1` [Example 116] were, in that order, 500 to 5000 nM and 50 to 500 nM.
For `N#Cc1ccc(Nc2ncc(Cl)c(Nc3cc(C4CC4)[nH]n3)n2)cc1` [Example 117], the IC50 in test [1] and in test [2] was 50 to 500 nM each time.
In the case of `CC(C)CNc1ncc(Br)c(Nc2cc(C3CC3)[nH]n2)n1` [Example 118], the results for the concentration for half-maximal inhibition (IC50) in test [1] and in test [2] were 500 to 5000 nM and 50 to 500 nM, respectively.
The like results for `Fc1ccc(Nc2ncc(Br)c(Nc3cc(C4CC4)n[nH]3)n2)c(Br)c1` [Example 121] were, in that order, 50 to 500 nM and 50 to 500 nM.
The like results for `CN1CCN(C(=O)c2ccc(Nc3ncc(Br)c(Nc4cc(C5CC5)n[nH]4)n3)cc2)CC1` [Example 124] were, in that order, 500 to 5000 nM and 50 to 500 nM.
The like results for `Cc1cc(Nc2cc(C3CC3)n[nH]2)nc(Nc2ccc(CC#N)cc2)n1` [Example 125] were, in that order, 50 to 500 nM and 50 to 500 nM.
As to `CN1CCN(C(=O)c2cccc(Nc3ncc(Br)c(Nc4cc(C5CC5)n[nH]4)n3)c2)CC1` [Example 128], the figures for the IC50 in test [1] and in test [2] were 500 to 5000 nM and 50 to 500 nM, respectively.
With `c1cc(Nc2cc(C3CC3)[nH]n2)nc(NCc2cc(C3CCCCC3)no2)n1` [Example 129], the IC50 lay in the range of 500 to 5000 nM in test [1] and 50 to 500 nM in test [2].
The like results for `Brc1cnc(Nc2cccc3ccccc23)nc1Nc1cc(C2CC2)[nH]n1` [Example 130] were, in that order, 50 to 500 nM and 50 to 500 nM.
`CSc1ccccc1Nc1ncc(Br)c(Nc2cc(C3CC3)n[nH]2)n1` [Example 131]: the IC50 in test [1] is 500 to 5000 nM; in test [2], 50 to 500 nM.
For `Brc1cnc(Nc2ccc3[nH]ccc3c2)nc1Nc1cc(C2CC2)n[nH]1` [Example 132], in that order: 50 to 500 nM and 50 to 500 nM.
For `Brc1cnc(Nc2cc(C3CC3)n[nH]2)nc1Nc1cc(C2CC2)n[nH]1` [Example 133], in that order: 500 to 5000 nM and 50 to 500 nM.
For `Cc1cc(C)cc(Nc2ncc(Br)c(Nc3cc(C4CC4)n[nH]3)n2)c1` [Example 134], in that order: 500 to 5000 nM and 50 to 500 nM.
Turning to `Cc1ncc(CNc2ncc(Br)c(Nc3cc(C4CC4)[nH]n3)n2)s1` [Example 135], the IC50 fell in the range of 500 to 5000 nM in test [1] and 50 to 500 nM in test [2].
The like results for `Brc1cnc(NCc2ccco2)nc1Nc1cc(C2CC2)n[nH]1` [Example 138] were, in that order, 50 to 500 nM and 50 to 500 nM.
The like results for `O=S(=O)(c1ccc(Nc2ncc(Br)c(Nc3cc(C4CC4)n[nH]3)n2)cc1)N1CCOCC1` [Example 140] were, in that order, 500 to 5000 nM and 50 to 500 nM.
The like results for `CC(C)(C)OC(=O)N1CC[C@H](NC(=O)c2cccc(Nc3ncc(Br)c(Nc4cc(C5CC5)n[nH]4)n3)c2)C1` [Example 141] were, in that order, 500 to 5000 nM and 50 to 500 nM.
Turning to `Cc1ccc(CNc2ncc(Br)c(Nc3cc(C4CC4)n[nH]3)n2)o1` [Example 142], the IC50 fell in the range of 500 to 5000 nM in test [1] and 50 to 500 nM in test [2].
For `Clc1cc(Br)ccc1Nc1ncc(Br)c(Nc2cc(C3CC3)[nH]n2)n1` [Example 143], in that order: 500 to 5000 nM and 50 to 500 nM.
With `CC(C)(C)OC(=O)N1CC[C@@H](NC(=O)c2ccc(Nc3ncc(Br)c(Nc4cc(C5CC5)n[nH]4)n3)cc2)C1` [Example 145], the values for the IC50 in test [1] and in test [2] were 500 to 5000 nM and 50 to 500 nM, respectively.
For `COc1ccc(C)cc1Nc1ncc(Br)c(Nc2cc(C3CC3)[nH]n2)n1` [Example 147], in that order: 500 to 5000 nM and 50 to 500 nM.
For `c1cc(Nc2cc(C3CCCC3)n[nH]2)nc(Nc2ccc(N3CCOCC3)cc2)n1` [Example 151], in that order: 500 to 5000 nM and 50 to 500 nM.
For `Cc1cnc(Nc2ccc(C(=O)NC3CCN(C)CC3)cc2)nc1Nc1cc(C2CC2)n[nH]1` [Example 157], in that order: 500 to 5000 nM and 500 to 5000 nM.
For the compound `NC(=O)c1ccc(Oc2ncc(Br)c(Nc3cc(C4CC4)n[nH]3)n2)cc1` [Example 158], the IC50 in test [1] and in test [2] was 500 to 5000 nM throughout.
As for `CCN(CC)CCCNc1nc(Nc2cc(C3CC3)n[nH]2)c(Cl)c(Nc2ccccc2Cl)n1` [Example 160], the half-inhibitory concentration (IC50) in test [1] was > 5000 nM; in test [2] it was 500 to 5000 nM.
With `Brc1ccc(Nc2ncc(Br)c(Nc3cc(C4CC4)n[nH]3)n2)c(Br)c1` [Example 163], the IC50 in test [1] and in test [2] was 500 to 5000 nM each time.
In the case of `CN1CCC(NC(=O)c2ccc(Nc3nccc(Nc4cc(C5CC5)n[nH]4)n3)cc2)CC1` [Example 164], the IC50 in test [1] and in test [2] was 500 to 5000 nM throughout.
On to `Cc1ccc(C(C)C)cc1Nc1ncc(Br)c(Nc2cc(C3CC3)n[nH]2)n1` [Example 165], for which the IC50 in test [1] and in test [2] was 500 to 5000 nM throughout.
In the case of `N#Cc1ccc(Nc2ncc(Br)c(Nc3cc(C4CC4)n[nH]3)n2)cc1` [Example 166], the IC50 in test [1] and in test [2] was 500 to 5000 nM in each case.
In the case of `CCN(CC)CCNC(=O)c1ccc(Nc2ncc(C)c(Nc3cc(C4CC4)n[nH]3)n2)cc1` [Example 167], the IC50 in test [1] and in test [2] was 500 to 5000 nM throughout.
`Fc1cnc(Nc2ccccc2Cl)nc1Nc1cc(C2CC2)[nH]n1` [Example 168]: the IC50 was in the range of 50 to 500 nM in test [1] and 500 to 5000 nM in test [2].
The like results for `O=C(Nc1ccc(Cl)c(Nc2ncc(Br)c(Nc3cc(C4CC4)[nH]n3)n2)c1)c1ccccc1` [Example 169] were, in that order, 500 to 5000 nM and 500 to 5000 nM.
The like results for `Brc1cnc(NCCc2cccs2)nc1Nc1cc(C2CC2)n[nH]1` [Example 170] were, in that order, 500 to 5000 nM and 500 to 5000 nM.
For `Brc1ccc(Br)c(Nc2ncc(Br)c(Nc3cc(C4CC4)n[nH]3)n2)c1` [Example 172], in that order: 50 to 500 nM and 500 to 5000 nM.
Consider `Cc1cc(Nc2cc(C3CC3)n[nH]2)nc(Nc2ccc3cc(C(=O)NCCN4CCCC4)sc3c2)n1` [Example 173], for which the IC50 in test [1] and in test [2] was 500 to 5000 nM throughout.
Turning to `Cc1cnc(Nc2ccc(N(C)C)cc2)nc1Nc1cc(C2CC2)n[nH]1` [Example 175], the IC50 in test [1] and in test [2] was 500 to 5000 nM in each case.
Turning to `Cc1cc(Nc2cc(C3CC3)[nH]n2)nc(NCc2cc(-c3ccc(Cl)cc3)no2)n1` [Example 178], the IC50 in test [1] lay in the range of 50 to 500 nM; in test [2] it was 500 to 5000 nM.

In general, IC50 refers to the concentration that gives 50% inhibition. Low values mean greater potency, high ones weaker potency.

The record behind these values is patent US8211929B2, “Pyrimidine derivatives as kinase modulators and method of use” (Exelixis, Inc., priority 2004, dated 2012).
